Target: human NaV 1.8 (Homo sapiens, UniProt Q9Y5Y9)
Test: E-VIPR assay for detecting and measuring NaV inhibition properties
Type: cell-based
Conditions: E-VIPR assay conducted in the presence of human serum; HEK cells expressing truncated human NaV 1.8; read-out: IC50
Text: Sodium ion channels are voltage-dependent proteins that can be activated by inducing membrane voltage changes by applying electric fields. The electrical stimulation instrument and methods of use, referred to as E-VIPR, are described in International Publication No. WO 2002/008748 A3 and C.-J. Huang et al. Characterization of voltage-gated sodium channel blockers by electrical stimulation and fluorescence detection of membrane potential, 24 Nature Biotech. 439-46 (2006), both of which are incorporated by reference in their entirety. The instrument comprises a microtiter plate handler, an optical system for exciting the coumarin dye while simultaneously recording the coumarin and oxonol emissions, a waveform generator, a current- or voltage-controlled amplifier, and parallel electrode pairs that are inserted into assay plate wells. Under integrated computer control, this instrument passes user-programmed electrical stimulus protocols to cells within the wells of the microtiter plate.
16-20 hours prior to running the assay on E-VIPR, HEK cells expressing a truncated form of human NaV 1.8 with full channel activity were seeded into microtiter 384-well plates, pre-coated with matrigel, at a density of 25,000 cells per well. 2.5-5% KIR2.1 Bacmam virus was added to the final cell suspension before seeding into cell plates. HEK cells were grown in Dulbecco's Modified Eagle's Medium (DMEM) supplemented with 10% FBS (Fetal Bovine Serum, qualified; Sigma #F4135), 1% NEAA (Non-Essential Amino Acids, Gibco #11140), 1% HEPES (Gibco #15630), 1% Pen-Strep (Penicillin-Streptomycin; Gibco #15140) and 5 μg/ml Blasticidin (Gibco #R210-01). Cells were expanded in vented cap cell culture flasks, with 90-95% humidity and 5% CO2.
Compound Loading Buffer (2× concentration): Na/TMA Cl Bath1 Buffer containing HS (omitted in experiments run in the absence of human serum (HS)) 50%, VABSC-1 1 mM, BSA 0.2 mg/ml (in Bath-1), KCl 9 mM, DMSO 0.75%.
• 1) To reach the final concentration in each well, 400 nL of each compound was pre-spotted (in neat DMSO) into polypropylene compound plates at 250× desired final concentration from an intermediate stock concentration of 0.075 mM, in an 11 point dose response, 3-fold dilution, resulting in a top dose of 300 nM final concentration in the cell plate. Vehicle control (neat DMSO), and positive control (an established NaV1.8 inhibitor, 25 μM final in assay in DMSO) were added manually to the outermost columns of each plate respectively. The compound plate was backfilled with 45 μL per well of Compound Loading Buffer resulting in a 250 fold dilution of compound following a 1:1 transfer of compound into the cell plate (see Step 6). Final DMSO concentration for all wells in the assay was 0.625% (0.75% DMSO was supplemented to the Compound Loading Buffer for a final DMSO concentration of 0.625%). This assay dilution protocol was adjusted to enable a higher dose range to be tested in the presence of HS or if the final assay volume was altered. • 2) Hexyl Dye Solution was prepared. • 3) Cell plates were prepared. On the day of the assay, the media was aspirated, and the cells were washed three times with 80 μL of Bath-1 buffer, maintaining 25 μL residual volume in each well. • 4) 25 μL per well of Hexyl Dye Solution was dispensed into the cell plates. The cells were incubated for 20 minutes at room temperature or ambient conditions in darkness. • 5) 45 μL per well of Compound Loading Buffer was dispensed into compound plates. • 6) The cell plates were washed three times with 80 μL per well of Bath-1 Buffer, leaving 25 µL of residual volume. Then 25 μL per well from compound plate was transferred to each cell plate. The mixture was incubated for 30 minutes at room temperature/ambient conditions. • 7) The cell plate containing compound was read on E-VIPR using the current-controlled amplifier to deliver stimulation wave pulses using a symmetrical biphasic waveform. […]

Sequence of human NaV 1.8 (Q9Y5Y9 whole entry, looked up): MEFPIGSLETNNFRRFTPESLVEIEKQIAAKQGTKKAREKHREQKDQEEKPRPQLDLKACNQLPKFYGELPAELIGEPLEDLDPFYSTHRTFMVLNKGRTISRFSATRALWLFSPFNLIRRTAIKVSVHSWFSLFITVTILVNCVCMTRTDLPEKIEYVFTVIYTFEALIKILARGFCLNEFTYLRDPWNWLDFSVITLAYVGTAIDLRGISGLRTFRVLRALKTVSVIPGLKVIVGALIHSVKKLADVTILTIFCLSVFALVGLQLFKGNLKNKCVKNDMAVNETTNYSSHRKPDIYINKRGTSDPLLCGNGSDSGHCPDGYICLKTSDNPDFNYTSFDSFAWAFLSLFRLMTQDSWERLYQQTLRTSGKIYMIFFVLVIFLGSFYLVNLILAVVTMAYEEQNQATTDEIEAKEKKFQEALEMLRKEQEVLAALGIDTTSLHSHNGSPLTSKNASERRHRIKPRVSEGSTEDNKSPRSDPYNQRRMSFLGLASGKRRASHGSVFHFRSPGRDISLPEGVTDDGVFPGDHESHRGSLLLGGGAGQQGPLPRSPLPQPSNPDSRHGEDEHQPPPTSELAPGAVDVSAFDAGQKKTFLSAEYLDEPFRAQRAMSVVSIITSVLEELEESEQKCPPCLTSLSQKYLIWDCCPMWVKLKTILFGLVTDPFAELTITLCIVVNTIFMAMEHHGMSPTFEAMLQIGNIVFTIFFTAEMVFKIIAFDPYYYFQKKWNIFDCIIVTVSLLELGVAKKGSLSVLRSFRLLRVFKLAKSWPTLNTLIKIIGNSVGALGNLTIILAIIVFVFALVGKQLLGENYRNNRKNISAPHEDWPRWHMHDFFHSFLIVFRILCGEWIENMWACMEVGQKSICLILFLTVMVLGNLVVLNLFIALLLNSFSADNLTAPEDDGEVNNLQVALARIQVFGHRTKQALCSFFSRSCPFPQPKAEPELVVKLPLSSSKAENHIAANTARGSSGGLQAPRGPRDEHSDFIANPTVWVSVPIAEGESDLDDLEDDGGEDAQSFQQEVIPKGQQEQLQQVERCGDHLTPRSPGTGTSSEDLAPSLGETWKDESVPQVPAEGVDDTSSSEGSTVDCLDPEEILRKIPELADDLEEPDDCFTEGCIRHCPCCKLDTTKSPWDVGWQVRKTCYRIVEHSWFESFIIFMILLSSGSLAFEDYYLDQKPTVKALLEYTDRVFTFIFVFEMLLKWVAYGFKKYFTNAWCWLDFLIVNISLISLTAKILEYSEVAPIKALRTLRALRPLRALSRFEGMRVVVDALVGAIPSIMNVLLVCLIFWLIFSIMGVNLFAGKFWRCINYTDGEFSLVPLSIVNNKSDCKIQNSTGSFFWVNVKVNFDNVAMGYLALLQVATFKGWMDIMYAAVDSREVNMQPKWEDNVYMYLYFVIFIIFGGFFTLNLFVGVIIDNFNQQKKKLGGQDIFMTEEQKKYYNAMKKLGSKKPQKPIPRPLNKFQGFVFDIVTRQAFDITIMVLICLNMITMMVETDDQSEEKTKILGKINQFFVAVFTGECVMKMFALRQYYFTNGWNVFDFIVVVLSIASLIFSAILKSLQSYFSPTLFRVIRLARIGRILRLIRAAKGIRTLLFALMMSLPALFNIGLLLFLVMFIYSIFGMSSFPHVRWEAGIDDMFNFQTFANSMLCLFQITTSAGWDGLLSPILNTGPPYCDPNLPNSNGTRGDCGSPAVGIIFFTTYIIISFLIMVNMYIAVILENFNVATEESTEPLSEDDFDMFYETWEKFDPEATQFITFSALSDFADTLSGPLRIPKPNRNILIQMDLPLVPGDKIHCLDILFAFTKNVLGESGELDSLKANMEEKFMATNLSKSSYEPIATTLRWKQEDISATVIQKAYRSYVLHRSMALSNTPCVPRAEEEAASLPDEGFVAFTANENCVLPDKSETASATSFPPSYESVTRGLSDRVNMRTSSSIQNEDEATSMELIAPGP

Row | IC50 [nM] | Molecule
1 | 450 | CC(C)Oc1ccc(Oc2ccc(C(F)(F)F)cc2C(=O)Nc2ccnc(C(N)=O)c2)cc1Cl [Compound 2, 4-[[2-(3-chloro-4-isopropoxy-phenoxy)-5-(trifluoromethyl)benzoyl]amino]pyridine-2-carboxamide]
2 | 1400 | Cc1cc(Oc2ccc(C(F)(F)F)cc2C(=O)Nc2ccnc(C(N)=O)c2)ccc1F [Compound 3, 4-[[2-(4-fluoro-3-methyl-phenoxy)-5-(trifluoromethyl)benzoyl]amino]pyridine-2-carboxamide]
3 | 1200 | NC(=O)c1cc(NC(=O)c2cc(C(F)(F)F)ccc2Oc2ccc(F)cc2Cl)ccn1 [Compound 5, 4-[[2-(2-chloro-4-fluoro-phenoxy)-5-(trifluoromethyl)benzoyl]amino]pyridine-2-carboxamide]
4 | 1700 | NC(=O)c1cc(NC(=O)c2cc(C(F)(F)F)ccc2Oc2ccc(F)c(F)c2)ccn1 [Compound 6, 4-[[2-(3,4-difluorophenoxy)-5-(trifluoromethyl)benzoyl]amino]pyridine-2-carboxamide]
5 | 660 | CC(C)Oc1ccc(Oc2ccc(C(F)(F)F)cc2C(=O)Nc2ccnc(C(N)=O)c2)cc1F [Compound 7, 4-[[2-(3-fluoro-4-isopropoxy-phenoxy)-5-(trifluoromethyl)benzoyl]amino]pyridine-2-carboxamide]
6 | 1300 | CC(C)Oc1ccc(Oc2ccc(C(F)(F)F)cc2C(=O)Nc2ccnc(C(N)=O)c2)cc1 [Compound 9, 4-[[2-(4-isopropoxyphenoxy)-5-(trifluoromethyl)benzoyl]amino]pyridine-2-carboxamide]
7 | 1400 | NC(=O)c1cc(NC(=O)c2cc(C(F)(F)F)ccc2Oc2ccc(F)c(Cl)c2)ccn1 [Compound 11, 4-[[2-(3-chloro-4-fluoro-phenoxy)-5-(trifluoromethyl)benzoyl]amino]pyridine-2-carboxamide]
8 | > 3000 | NC(=O)c1cc(NC(=O)c2cc(C(F)(F)F)ccc2Oc2ccc(OC3CCCCC3)cc2)ccn1 [Compound 13, 4-[[2-[4-(cyclohexoxy)phenoxy]-5-(trifluoromethyl)benzoyl]amino]pyridine-2-carboxamide]

More lines, now with the values behind:

Row | Molecule | IC50 [nM]
9 | 4-[[2-(4-fluoro-2-methoxy-phenyl)-4-(trifluoromethyl)benzoyl]amino]pyridine-2-carboxamide [Compound 175] | > 3000
10 | COc1cc(OC(F)(F)F)ccc1Oc1cc(C2CCC(C(F)(F)F)CC2)ccc1C(=O)Nc1ccnc(C(N)=O)c1 (single isomer, unassigned) [158 (first diastereomer), 4-[[2-[2-methoxy-4-(trifluoromethoxy)phenoxy]-4-[4-(trifluoromethyl)cyclohexyl]benzoyl]amino]pyridine-2-carboxamide] | 960
11 | COc1cc(OC(F)(F)F)ccc1Oc1cc(C2CCC(C(F)(F)F)CC2)ccc1C(=O)Nc1ccnc(C(N)=O)c1 (single isomer, unassigned) [158 (second diastereomer), 4-[[2-[2-methoxy-4-(trifluoromethoxy)phenoxy]-4-[4-(trifluoromethyl)cyclohexyl]benzoyl]amino]pyridine-2-carboxamide] | 395
12 | COc1cc(OC(F)(F)F)ccc1Oc1cc(C2CCC(C(F)(F)F)CC2)cc(F)c1C(=O)Nc1ccnc(C(N)=O)c1 (single isomer, unassigned) [168 (first diastereomer), 4-[[2-fluoro-6-[2-methoxy-4-(trifluoromethoxy)phenoxy]-4-[4-(trifluoromethyl)cyclohexyl]benzoyl]amino]pyridine-2-carboxamide] | 18
13 | COc1cc(OC(F)(F)F)ccc1Oc1cc(C2CCC(C(F)(F)F)CC2)cc(F)c1C(=O)Nc1ccnc(C(N)=O)c1 (single isomer, unassigned) [168 (second diastereomer), 4-[[2-fluoro-6-[2-methoxy-4-(trifluoromethoxy)phenoxy]-4-[4-(trifluoromethyl)cyclohexyl]benzoyl]amino]pyridine-2-carboxamide] | 10
14 | COc1cc(OC(F)(F)F)ccc1Oc1cc(C2CCC(C(C)(C)C)CC2)cc(F)c1C(=O)Nc1ccnc(C(N)=O)c1 (single isomer, unassigned) [169 (first diastereomer), 4-[[4-(4-tert-butylcyclohexyl)-2-fluoro-6-[2-methoxy-4-(trifluoromethoxy)phenoxy]benzoyl]amino]pyridine-2-carboxamide] | 11
15 | COc1cc(OC(F)(F)F)ccc1Oc1cc(C2CCC(C(C)(C)C)CC2)cc(F)c1C(=O)Nc1ccnc(C(N)=O)c1 (single isomer, unassigned) [169 (second diastereomer), 4-[[4-(4-tert-butylcyclohexyl)-2-fluoro-6-[2-methoxy-4-(trifluoromethoxy)phenoxy]benzoyl]amino]pyridine-2-carboxamide] | 21
16 | [2H]C([2H])([2H])Oc1cc(OC(F)(F)F)ccc1Oc1cc(C2CCC(OC)CC2)cc(F)c1C(=O)Nc1ccnc(C(N)=O)c1 (single isomer, unassigned) [1017 (first diastereomer), 4-[[2-fluoro-4-(4-methoxycyclohexyl)-6-[2-(trideuteriomethoxy)-4-(trifluoromethoxy)phenoxy]benzoyl]amino]pyridine-2-carboxamide] | 252
17 | [2H]C([2H])([2H])Oc1cc(OC(F)(F)F)ccc1Oc1cc(C2CCC(OC)CC2)cc(F)c1C(=O)Nc1ccnc(C(N)=O)c1 (single isomer, unassigned) [1017 (second diastereomer), 4-[[2-fluoro-4-(4-methoxycyclohexyl)-6-[2-(trideuteriomethoxy)-4-(trifluoromethoxy)phenoxy]benzoyl]amino]pyridine-2-carboxamide] | 17
18 | COc1cc(OC(F)(F)F)ccc1Oc1cc(C2CCC(OC)CC2)ccc1C(=O)Nc1ccnc(C(N)=O)c1 (single isomer, unassigned) [1032 (first diastereomer), 4-[[4-(4-methoxycyclohexyl)-2-[2-methoxy-4-(trifluoromethoxy)phenoxy]benzoyl]amino]pyridine-2-carboxamide] | 524
19 | COc1cc(OC(F)(F)F)ccc1Oc1cc(C2CCC(OC)CC2)ccc1C(=O)Nc1ccnc(C(N)=O)c1 (single isomer, unassigned) [1032 (second diastereomer), 4-[[4-(4-methoxycyclohexyl)-2-[2-methoxy-4-(trifluoromethoxy)phenoxy]benzoyl]amino]pyridine-2-carboxamide] | 1550
20 | COc1nc(Cl)ccc1Oc1ccc(C(F)(F)F)cc1C(=O)Nc1ccnc(C(N)=O)c1 [Compound 1, 4-[[2-[(6-Chloro-2-Methoxy-3-Pyridyl)Oxy]-5-(Trifluoromethyl)Benzoyl]Amino]Pyridine-2-Carboxamide] | 390
21 | Cc1cc(F)ccc1Oc1ccc(C(F)(F)F)cc1C(=O)Nc1ccnc(C(N)=O)c1 [Compound 4, 4-[[2-(4-fluoro-2-methyl-phenoxy)-5-(trifluoromethyl)benzoyl]amino]pyridine-2-carboxamide] | 650
22 | COc1cc(F)ccc1Oc1ccc(C(F)(F)F)cc1C(=O)Nc1ccnc(C(N)=O)c1 [Compound 8, 4-[[2-(4-fluoro-2-methoxy-phenoxy)-5-(trifluoromethyl)benzoyl]amino]pyridine-2-carboxamide] | 510
23 | NC(=O)c1cc(NC(=O)c2cc(C(F)(F)F)ccc2Oc2ccc(F)c3c2OCC3)ccn1 [Compound 10, 4-[[2-[(4-fluoro-2,3-dihydrobenzofuran-7-yl)oxy]-5-(trifluoromethyl)benzoyl]amino]pyridine-2-carboxamide] | 650
24 | COc1c(F)cccc1Oc1ccc(C(F)(F)F)cc1C(=O)Nc1ccnc(C(N)=O)c1 [Compound 12, 4-[[2-(3-fluoro-2-methoxy-phenoxy)-5-(trifluoromethyl)benzoyl]amino]pyridine-2-carboxamide] | 2100
